The values below come from US11407738B2 (Achillion Pharmaceuticals, Inc., priority 2015, dated 2022).

Some results are limits rather than exact numbers.

Human Factor D, sequence (P00746 26-253): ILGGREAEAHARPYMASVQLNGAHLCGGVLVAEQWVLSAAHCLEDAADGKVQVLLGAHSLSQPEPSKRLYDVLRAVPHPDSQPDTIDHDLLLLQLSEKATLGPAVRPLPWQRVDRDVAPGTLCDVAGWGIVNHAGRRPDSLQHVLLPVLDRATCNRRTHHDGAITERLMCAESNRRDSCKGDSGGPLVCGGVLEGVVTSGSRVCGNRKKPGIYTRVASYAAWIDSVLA

For this experiment, the target named is Human Factor D (Homo sapiens (Human), UniProt P00746). Put plainly: Human Factor D assay. The format is biochemical. The following applies: Table 4; Factor D inhibition, substrate Z-L-Lys-SBzl. The essentials:
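Serum-purified human factor D (80 nM final) preincubated 5 min at room temperature with test compound in 50 mM Tris, 1M NaCl, pH 7.5. Z-L-Lys-SBzl substrate and DTNB then added, each at 100 μM final. IC50 from nonlinear regression of reaction rate against compound concentration.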
With `CC(=O)c1nn(CC(=O)N2C[C@H](F)C[C@H]2CC(N)=O)c2ccc(-c3cnc(C)nc3)cc12` [Compound 575, 2-((2R,4R)-1-(2-(3-Acetyl-5-(2-methylpyrimidin-5-yl)-1H-indazol-1-yl)acetyl)-4-fluoropyrrolidin-2-yl)acetamide], the IC50 is greater than 10 µM.

`CC(=O)c1nn(CC(=O)N2C[C@H](F)C[C@H]2CC(=O)Nc2cccc(Cl)c2F)c2ccc(-c3cnc(C)nc3)cc12` [Compound 576, 2-((2R,4R)-1-(2-(3-Acetyl-5-(2-methylpyrimidin-5-yl)-1H-indazol-1-yl)acetyl)-4-fluoropyrrolidin-2-yl)-N-(3-chloro-2-fluorophenyl)acetamide]: the IC50 is greater than 10 µM.

Consider `CC(=O)c1nn(CC(=O)N2C[C@H](F)C[C@H]2CC(=O)O)c2ccc(-c3cnc(C)nc3)cc12` [Compound 577, 2-((2R,4R)-1-(2-(3-Acetyl-5-(2-methylpyrimidin-5-yl)-1H-indazol-1-yl)acetyl)-4-fluoropyrrolidin-2-yl)acetic Acid], for which the IC50 was greater than 10 µM. Under `Cc1cccc(NC(=O)[C@@H]2CCC(F)CCN2C(=O)Cn2cc(C(N)=O)c3cc(-c4cnc(C)nc4)ccc32)n1` (stereo partly drawn) [Compound 578, 1-(2-((2S)-5-Fluoro-2-((6-methylpyridin-2-yl)carbamoyl)azepan-1-yl)-2-oxoethyl)-5-(2-methylpyrimidin-5-yl)-1H-indole-3-carboxamide] stands greater than 10 µM. Under `CC(=O)c1nn(CC(=O)N2C[C@H](F)C[C@H]2CC(=O)NC#N)c2ccc(-c3cnc(C)nc3)cc12` [Compound 579, 2-((2R,4R)-1-(2-(3-Acetyl-5-(2-methylpyrimidin-5-yl)-1H-indazol-1-yl)acetyl)-4-fluoropyrrolidin-2-yl)-N-cyanoacetamide] stands greater than 10 µM; under `CC(=O)c1nn(CC(=O)N2C[C@H](F)C[C@H]2CC(=O)Nc2cccc(Br)n2)c2ccc(-c3cnc(C)nc3)cc12` [Compound 580, 2-((2R,4R)-1-(2-(3-Acetyl-5-(2-methylpyrimidin-5-yl)-1H-indazol-1-yl)acetyl)-4-fluoropyrrolidin-2-yl)-N-(6-bromopyridin-2-yl)acetamide], greater than 10 µM. The result for `CCOP(=O)(OCC)OC[C@@]12C[C@@H]1N(C(=O)Cn1nc(C(C)=O)c3cc(-c4cnc(C)nc4)ccc31)[C@H](C(=O)Nc1cccc(Br)n1)C2` [Compound 581, ((1S,3S,5R)-2-(2-(3-Acetyl-5-(2-methylpyrimidin-5-yl)-1H-indazol-1-yl)acetyl)-3-(6-bromopyridin-2-ylcarbamoyl)-2-azabicyclo[3.1.0]hexan-5-yl)methyl Diethyl Phosphate] reads 1 to 10 µM. The compound `CCOP(=O)(OCC)OC[C@@]12C[C@@H](C(=O)Nc3cccc(Br)n3)N(C(=O)Cn3nc(C(C)=O)c4cc(-c5cnc(C)nc5)ccc43)[C@@H]1C2` [Compound 582, ((1R,3S,5S)-2-(2-(3-Acetyl-5-(2-methylpyrimidin-5-yl)-1H-indazol-1-yl)acetyl)-3-(6-bromopyridin-2-ylcarbamoyl)-2-azabicyclo[3.1.0]hexan-5-yl)methyl diethyl phosphate] returned an IC50 of less than 1 µM. Compound `CC(=O)c1nn(CC(=O)N2C[C@H](F)C[C@H]2c2nnc(CCCC(F)(F)F)o2)c2ccc(-c3cnc(C)nc3)cc12` [Compound 583, 2-(3-Acetyl-5-(2-methylpyrimidin-5-yl)-H-indazol-1-yl)-1-((2S,4R)-4-fluoro-2-(5-(4,4,4-trifluorobutyl)-1,3,4-oxadiazol-2-yl)pyrrolidin-1-yl)ethan-1-one] showed an IC50 of 1 to 10 µM. Under `CC(=O)c1nn(CC(=O)N2C[C@H](F)C[C@H]2c2nnc(CCCC(F)(F)F)[nH]2)c2ccc(-c3cnc(C)nc3)cc12` [Compound 584, 2-(3-Acetyl-5-(2-methylpyrimidin-5-yl)-1H-indazol-1-yl)-1-((2S,4R)-4-fluoro-2-(5-(4,4,4-trifluorobutyl)-4H-1,2,4-triazol-3-yl)pyrrolidin-1-yl)ethan-1-one] stands 1 to 10 µM. Compound `Cc1ncc(-c2ccc3c(c2)c(C(=O)NS(C)(=O)=O)nn3CC(=O)N2C[C@H](F)C[C@H]2C(=O)Nc2cccc(Br)n2)cn1` [Compound 585, 1-(2-((2S,4R)-2-((6-bromopyridin-2-yl)carbamoyl)-4-fluoropyrrolidin-1-yl)-2-oxoethyl)-5-(2-methylpyrimidin-5-yl)-N-(methylsulfonyl)-1H-indazole-3-carboxamide] came in with an IC50 greater than 10 µM. For `Cc1ccc(-c2ccc3c(c2)c(C(N)=O)cn3CC(=O)N2CCC(F)CC[C@H]2C(=O)Nc2cccc(C)n2)cn1` (stereo partly drawn) [Compound 586, 1-(2-((2S)-5-Fluoro-2-((6-methylpyridin-2-yl)carbamoyl)azepan-1-yl)-2-oxoethyl)-5-(6-methylpyridin-3-yl)-1H-indole-3-carboxamide], the IC50 is greater than 10 µM. Under `Cc1cccc(NC(=O)[C@@H]2CCC(F)CCN2C(=O)Cn2cc(C(N)=O)c3cc(-c4ccc5c(c4)CC5)ccc32)n1` (stereo partly drawn) [Compound 587, 5-(1,2-Dihydrocyclobutabenzen-4-yl)-1-(2-((2S)-5-fluoro-2-(6-methylpyridin-2-ylcarbamoyl)azepan-1-yl)-2-oxoethyl)-1H-indole-3-carboxamide] stands greater than 10 µM.

For `Cc1cccc(NC(=O)[C@@H]2CCC(F)CCN2C(=O)Cn2cc(C(N)=O)c3cc(-c4cccnc4)ccc32)n1` (stereo partly drawn) [Compound 588, 1-(2-((2S)-5-Fluoro-2-((6-methylpyridin-2-yl)carbamoyl)azepan-1-yl)-2-oxoethyl)-5-(pyridin-3-yl)-1H-indole-3-carboxamide], the IC50 is greater than 10 µM.

The compound `Cc1cccc(NC(=O)[C@@H]2CCC(F)CCN2C(=O)Cn2cc(C(N)=O)c3cc(-c4ccc5c(c4)CCCC5)ccc32)n1` (stereo partly drawn) [Compound 589, 1-(2-((2S)-5-fluoro-2-((6-methylpyridin-2-yl)carbamoyl)azepan-1-yl)-2-oxoethyl)-5-(5,6,7,8-tetrahydronaphthalen-2-yl)-1H-indole-3-carboxamide] came in with an IC50 greater than 10 µM. The result for `Cc1cccc(NC(=O)[C@@H]2CCC(F)CCN2C(=O)Cn2cc(C(N)=O)c3cc(-c4ccc(F)nc4)ccc32)n1` (stereo partly drawn) [Compound 590, 1-(2-((2S)-5-Fluoro-2-((6-methylpyridin-2-yl)carbamoyl)azepan-1-yl)-2-oxoethyl)-5-(6-fluoropyridin-3-yl)-1H-indole-3-carboxamide] reads greater than 10 µM; that for `Cc1cccc(NC(=O)[C@@H]2CCC(F)CCN2C(=O)Cn2cc(C(N)=O)c3cc(-c4cccc(C#N)c4)ccc32)n1` (stereo partly drawn) [Compound 591, 5-(3-Cyanophenyl)-1-(2-((2S)-5-fluoro-2-(6-methylpyridin-2-ylcarbamoyl)azepan-1-yl)-2-oxoethyl)-1H-indole-3-carboxamide], greater than 10 µM; that for `CC(=O)c1nn(CC(=O)N2C[C@H](F)C[C@H]2CC(=O)NO)c2ccc(-c3cnc(C)nc3)cc12` [Compound 592, 2-((2R,4R)-1-(2-(3-Acetyl-5-(2-methylpyrimidin-5-yl)-1H-indazol-1-yl)acetyl)-4-fluoropyrrolidin-2-yl)-N-hydroxyacetamide], greater than 10 µM. Under `Cc1cccc(NC(=O)[C@@H]2CCC(F)CCN2C(=O)Cn2cc(C(N)=O)c3cc(-c4cnc5c(c4)CCC5)ccc32)n1` (stereo partly drawn) [Compound 593, 5-(6,7-Dihydro-5H-cyclopenta[b]pyridin-3-yl)-1-(2-((2S)-5-fluoro-2-((6-methylpyridin-2-yl)carbamoyl)azepan-1-yl)-2-oxoethyl)-1H-indole-3-carboxamide] stands greater than 10 µM; under `Cc1cccc(NC(=O)[C@@H]2CCC(F)CCN2C(=O)Cn2cc(C(N)=O)c3cc(-c4ccc5ccccc5c4)ccc32)n1` (stereo partly drawn) [Compound 594, 1-(2-((2S)-5-Fluoro-2-((6-methylpyridin-2-yl)carbamoyl)azepan-1-yl)-2-oxoethyl)-5-(naphthaalen-2-yl)-1H-indole-3-carboxamide], greater than 10 µM; under `Cc1cccc(NC(=O)[C@@H]2CCC(F)CCN2C(=O)Cn2cc(C(N)=O)c3cc(-c4ccc(N)nc4)ccc32)n1` (stereo partly drawn) [Compound 595, 5-(6-Aminopyridin-3-yl)-1-(2-((2S)-5-fluoro-2-((6-methylpyridin-2-yl)carbamoyl)azepan-1-yl)-2-oxoethyl)-1H-indole-3-carboxamide], greater than 10 µM.

`COc1ccc(-c2ccc3c(c2)c(C(N)=O)cn3CC(=O)N2CCC(F)CC[C@H]2C(=O)Nc2cccc(C)n2)cn1` (stereo partly drawn) [Compound 596, 1-(2-((2S)-5-Fluoro-2-((6-methylpyridin-2-yl)carbamoyl)azepan-1-yl)-2-oxoethyl)-5-(6-methoxypyridin-3-yl)-1H-indole-3-carboxamide] showed an IC50 greater than 10 µM. The result for `CC[C@H](C(=O)Nc1cccc(Br)n1)N(C)C(=O)Cn1nc(C(C)=O)c2cc(-c3cnc(C)nc3)ccc21` [Compound 597, (R)-2-(2-(3-acetyl-5-(2-methylpyrimidin-5-yl)-1H-indazol-1-yl)-N-methylacetamido)-N-(6-bromopyridin-2-yl)butanamide] reads greater than 10 µM; that for `CC[C@@H](C(=O)Nc1cccc(Br)n1)N(C)C(=O)Cn1nc(C(C)=O)c2cc(-c3cnc(C)nc3)ccc21` [Compound 598, (S)-2-(2-(3-Acetyl-5-(2-methylpyrimidin-5-yl)-1H-indazol-1-yl)-N-methylacetamido)-N-(6-bromopyridin-2-yl)butanamide], 1 to 10 µM; that for `CC[C@@H](NC(=O)Cn1nc(C(C)=O)c2cc(-c3cnc(C)nc3)ccc21)C(=O)Nc1cccc(Br)n1` [Compound 599], greater than 10 µM.

`CC[C@H](NC(=O)Cn1nc(C(C)=O)c2cc(-c3cnc(C)nc3)ccc21)C(=O)Nc1cccc(Br)n1` [Compound 600] gave an IC50 of less than 1 µM. As for `CC(=O)c1nn(CC(=O)N2C[C@H](F)C[C@H]2C(=O)NCC#N)c2ccc(-c3cnc(C)nc3)cc12` [Compound 601], the IC50 is less than 1 µM. `Cc1cccc(NC(=O)[C@@H]2CCC(F)CCN2C(=O)Cn2cc(C(N)=O)c3cc(-c4ccc5cccnc5c4)ccc32)n1` (stereo partly drawn) [Compound 602, 1-(2-((2S)-5-Fluoro-2-((6-methylpyridin-2-yl)carbamoyl)azepan-1-yl)-2-oxoethyl)-5-(quinolin-7-yl)-1H-indole-3-carboxamide]: the IC50 is greater than 10 µM.

By IC50 is commonly meant the concentration at which inhibition is half-maximal. A lower IC50 goes with higher potency.
